Laboratory results from PubChem BioAssay AID342 (DTP/NCI, 2004).
Several values for one entry are separate records, joined by “and”; a condition that tells them apart may be missing. Identical values can stand only once.

Tested on: Swiss mice, Sarcoma 180 sc, mean tumor weight T/C
Test: NCI In Vivo Anticancer Drug Screen. Data for tumor model Sarcoma 180 (subcutaneous) in Swiss mice
Conditions: endpoint: mean tumor weight, higher = larger tumour
Summary of the method: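 Mice bearing transplanted tumors were treated with compound, and survival or tumor size was measured. Values are expressed as the treated-group measurement (T) divided by the vehicle-treated control measurement (C).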

[1] = dose: 125.0 mg/kg/injection, schedule: Q01DX007 (ip), vehicle: saline
[2] = dose: 50.0 mg/kg/injection, schedule: Q01DX007 (ip), vehicle: carboxymethylcellulose (CMC)
[3] = dose: 100.0 mg/kg/injection, schedule: Q01DX007 (ip), vehicle: carboxymethylcellulose (CMC)
[4] = dose: 12.5 mg/kg/injection, schedule: Q01DX007 (ip), vehicle: water
[5] = dose: 25.0 mg/kg/injection, schedule: Q01DX007 (ip), vehicle: water
[6] = dose: 75.0 mg/kg/injection, schedule: Q01DX007 (ip), vehicle: carboxymethylcellulose (CMC)
[7] = dose: 110.0 mg/kg/injection, schedule: Q01DX007 (ip), vehicle: carboxymethylcellulose (CMC)
[8] = dose: 250.0 mg/kg/injection, schedule: Q01DX007 (ip), vehicle: carboxymethylcellulose (CMC)
[9] = dose: 148.0 mg/kg/injection, schedule: Q01DX007 (ip), vehicle: saline
[10] = dose: 100.0 mg/kg/injection, schedule: Q01DX007 (ip), vehicle: saline

## C[C@]12C=CC(=O)C=C1[C@@H](F)C[C@@H]1[C@@H]2[C@@H](O)C[C@@]2(C)[C@H]1CC[C@]2(O)C(=O)CO
dose: 3.5 mg/kg/injection, schedule: Q#A X014 (sc), vehicle: steriod suspending solution
  T/C: 85 % of control
dose: 7.0 mg/kg/injection, schedule: Q#A X014 (sc), vehicle: steriod suspending solution
  T/C: 98 % of control
dose: 10.0 mg/kg/injection, schedule: Q#A X014 (sc), vehicle: steriod suspending solution
  T/C: 76 % of control
dose: 15.5 mg/kg/injection, schedule: Q#A X014 (sc), vehicle: steriod suspending solution
  T/C: 72 % of control
dose: 22.5 mg/kg/injection, schedule: Q#A X014 (sc), vehicle: steriod suspending solution
  T/C: 67 % of control

## Nc1nc(Cc2ccccc2)cc(=O)[nH]1
dose: 62.5 mg/kg/injection, schedule: Q01DX007 (ip), vehicle: water
  T/C: 88 % of control
dose: 125.0 mg/kg/injection, schedule: Q01DX007 (ip), vehicle: water
  T/C: 78 % of control
dose: 250.0 mg/kg/injection, schedule: Q01DX007 (ip), vehicle: water
  T/C: 67 % of control

## C[C@]1(O)CC[C@H]2[C@@H]3CCc4cc(O)ccc4[C@H]3CC[C@@]21C
dose: 0.5 mg/kg/injection, schedule: Q#A X014 (sc), vehicle: steriod suspending solution
  T/C: 115 % of control
dose: 5.0 mg/kg/injection, schedule: Q#A X014 (sc), vehicle: steriod suspending solution
  T/C: 103 % of control
dose: 50.0 mg/kg/injection, schedule: Q#A X014 (sc), vehicle: steriod suspending solution
  T/C: 74 % of control

## CC(C)(C#N)C#N
[1]
  T/C: 30 % of control
dose: 187.0 mg/kg/injection, schedule: Q01DX007 (ip), vehicle: saline
  T/C: 36 % of control
dose: 375.0 mg/kg/injection, schedule: Q01DX007 (ip), vehicle: saline
  T/C: 52 % of control and 58 % of control

## O=C(NC(CO)C(=O)O)C(Cl)Cl (configuration not stated)
dose: 500.0 mg/kg/injection, schedule: Q#A X014 (ip), vehicle: methylcellulose (MC)
  T/C: 47 % of control
dose: 1000.0 mg/kg/injection, schedule: Q#A X014 (ip), vehicle: methylcellulose (MC)
  T/C: 52 % of control
dose: 1500.0 mg/kg/injection, schedule: Q#A X014 (ip), vehicle: methylcellulose (MC)
  T/C: 60 % of control
dose: 2000.0 mg/kg/injection, schedule: Q#A X014 (ip), vehicle: methylcellulose (MC)
  T/C: 66 % of control
dose: 2500.0 mg/kg/injection, schedule: Q#A X014 (ip), vehicle: methylcellulose (MC)
  T/C: 68 % of control

## CCCCOCN1CCCCC1
[2]
  T/C: 64 % of control
[3]
  T/C: 123 % of control

## CCCCCCC(=O)NC1=C(N2CC2)C(=O)C(NC(=O)CCCCCC)=C(N2CC2)C1=O
dose: 27.75 mg/kg/injection, schedule: Q#A X014 (ip), vehicle: methylcellulose (MC)
  T/C: 42 % of control and 50 % of control and 56 % of control
dose: 41.5 mg/kg/injection, schedule: Q#A X014 (ip), vehicle: methylcellulose (MC)
  T/C: 38 % of control and 50 % of control and 53 % of control
dose: 62.5 mg/kg/injection, schedule: Q#A X014 (ip), vehicle: methylcellulose (MC)
  T/C: 31 % of control

## CN(C)c1ccc(/C=C\c2ccnc3ccccc23)cc1
[4]
  T/C: 123 % of control
dose: 16.0 mg/kg/injection, schedule: Q01DX007 (ip), vehicle: methylcellulose (MC)
  T/C: 118 % of control
dose: 24.0 mg/kg/injection, schedule: Q01DX007 (ip), vehicle: methylcellulose (MC)
  T/C: 80 % of control
[5]
  T/C: 114 % of control
dose: 36.0 mg/kg/injection, schedule: Q01DX007 (ip), vehicle: methylcellulose (MC)
  T/C: 66 % of control
dose: 50.0 mg/kg/injection, schedule: Q01DX007 (ip), vehicle: water
  T/C: 80 % of control

## NC(=O)c1ccccc1Nc1ccc([N+](=O)[O-])cc1[N+](=O)[O-]
dose: 37.5 mg/kg/injection, schedule: Q01DX007 (ip), vehicle: carboxymethylcellulose (CMC)
  T/C: 92 % of control
[6]
  T/C: 67 % of control

## CCCCCCCCCCCCCCCCCCNC(=S)N/N=C/c1ccc(Cl)cc1Cl
dose: 65.0 mg/kg/injection, schedule: Q#A X014 (ip), vehicle: methylcellulose (MC)
  T/C: 35 % of control and 53 % of control

## Cc1nnc2ncnc(N)c2n1
[2]
  T/C: 106 % of control
[6]
  T/C: 105 % of control

## COc1ccc(C(=O)/C(Br)=C/C(=O)O)cc1
dose: 6.25 mg/kg/injection, schedule: Q01DX007 (ip), vehicle: water
  T/C: 99 % of control
[4]
  T/C: 82 % of control
[5]
  T/C: 108 % of control

## S=P(N1CCCCC1)(N1CC1)N1CC1
dose: 55.0 mg/kg/injection, schedule: Q01DX007 (ip), vehicle: saline
  T/C: 26 % of control
dose: 84.0 mg/kg/injection, schedule: Q01DX007 (ip), vehicle: saline
  T/C: 26 % of control
[1]
  T/C: 14 % of control
dose: 188.0 mg/kg/injection, schedule: Q01DX007 (ip), vehicle: saline
  T/C: 8 % of control

## COC(=O)C1=CO[C@H](C)[C@@H]2CN3CCc4c([nH]c5ccccc45)[C@@H]3C[C@H]12
dose: 12.5 mg/kg/injection, schedule: Q01DX007 (ip), vehicle: carboxymethylcellulose (CMC)
  T/C: 110 % of control
dose: 25.0 mg/kg/injection, schedule: Q01DX007 (ip), vehicle: carboxymethylcellulose (CMC)
  T/C: 83 % of control
[2]
  T/C: 84 % of control
[3]
  T/C: 98 % of control

## COc1ccccc1NC(=O)CSC(N)=O
[7]
  T/C: 78 % of control
dose: 165.0 mg/kg/injection, schedule: Q01DX007 (ip), vehicle: carboxymethylcellulose (CMC)
  T/C: 74 % of control
[8]
  T/C: 61 % of control
dose: 375.0 mg/kg/injection, schedule: Q01DX007 (ip), vehicle: carboxymethylcellulose (CMC)
  T/C: 28 % of control

## CN1CC(=O)N=C1N
dose: 500.0 mg/kg/injection, schedule: Q#A X014 (ip), vehicle: water
  T/C: 74 % of control
dose: 1500.0 mg/kg/injection, schedule: Q#A X014 (ip), vehicle: water
  T/C: 73 % of control

## CCCCSc1nc(N)nc2nc[nH]c12
dose: 18.75 mg/kg/injection, schedule: Q#A X014 (ip), vehicle: methylcellulose (MC)
  T/C: 89 % of control
dose: 37.5 mg/kg/injection, schedule: Q#A X014 (ip), vehicle: methylcellulose (MC)
  T/C: 78 % of control
dose: 75.0 mg/kg/injection, schedule: Q#A X014 (ip), vehicle: methylcellulose (MC)
  T/C: 102 % of control
dose: 150.0 mg/kg/injection, schedule: Q#A X014 (ip), vehicle: methylcellulose (MC)
  T/C: 59 % of control

## CCCOC(=O)C1(N)CCCC1
[9]
  T/C: 42 % of control
dose: 225.0 mg/kg/injection, schedule: Q01DX007 (ip), vehicle: saline
  T/C: 28 % of control

## O=C(Nc1ccc(C2=NCCN2)cc1)c1ccc(C(=O)Nc2ccc(C3=NCCN3)cc2)c(Cl)c1
dose: 18.0 mg/kg/injection, schedule: Q01DX007 (ip), vehicle: carboxymethylcellulose (CMC)
  T/C: 88 % of control
dose: 20.0 mg/kg/injection, schedule: Q01DX007 (ip), vehicle: water
  T/C: 110 % of control
dose: 37.0 mg/kg/injection, schedule: Q01DX007 (ip), vehicle: carboxymethylcellulose (CMC)
  T/C: 96 % of control
dose: 40.0 mg/kg/injection, schedule: Q01DX007 (ip), vehicle: water
  T/C: 117 % of control

## C[C@H]1/C(=C/C(=O)OCCN(C)C)CC[C@H]2[C@H]1C(=O)C[C@H]1C(C)(C)[C@@H](O)CC[C@]21C
dose: 1.88 mg/kg/injection, schedule: Q01DX007 (ip), vehicle: saline
  T/C: 60 % of control
dose: 3.75 mg/kg/injection, schedule: Q01DX007 (ip), vehicle: saline
  T/C: 64 % of control
dose: 7.5 mg/kg/injection, schedule: Q01DX007 (ip), vehicle: saline
  T/C: 75 % of control

## Nc1ncnc2nc[nH]c12
dose: 25.0 mg/kg/injection, schedule: Q01DX007 (ip), vehicle: saline
  T/C: 104 % of control
dose: 50.0 mg/kg/injection, schedule: Q01DX007 (ip), vehicle: saline
  T/C: 87 % of control
[10]
  T/C: 119 % of control
dose: 200.0 mg/kg/injection, schedule: Q01DX007 (ip), vehicle: saline
  T/C: 57 % of control

## CNNCc1ccc(C(=O)NC(N)=O)cc1
[10]
  T/C: 40 % of control
dose: 125.0 mg/kg/injection, schedule: Q01DX007 (ip), vehicle: carboxymethylcellulose (CMC)
  T/C: 38 % of control
[9]
  T/C: 42 % of control
dose: 222.0 mg/kg/injection, schedule: Q01DX007 (ip), vehicle: saline
  T/C: 18 % of control
[8]
  T/C: 30 % of control
dose: 333.0 mg/kg/injection, schedule: Q01DX007 (ip), vehicle: saline
  T/C: 37 % of control

## CSc1ncnc2c1ncn2C1OC(CO)C(O)C1O (configuration not stated)
dose: 12.5 mg/kg/injection, schedule: Q01DX007 (ip), vehicle: saline
  T/C: 72 % of control
dose: 15.0 mg/kg/injection, schedule: Q01DX007 (ip), vehicle: saline
  T/C: 88 % of control
dose: 17.5 mg/kg/injection, schedule: Q01DX007 (ip), vehicle: saline
  T/C: 94 % of control
dose: 20.0 mg/kg/injection, schedule: Q01DX007 (ip), vehicle: saline
  T/C: 73 % of control

## CC(CNC(=O)CCBr)NC(=O)CCBr (configuration not stated)
[7]
  T/C: 48 % of control and 64 % of control
dose: 167.8 mg/kg/injection, schedule: Q01DX007 (ip), vehicle: carboxymethylcellulose (CMC)
  T/C: 48 % of control
dose: 168.0 mg/kg/injection, schedule: Q01DX007 (ip), vehicle: carboxymethylcellulose (CMC)
  T/C: 34 % of control
